From paper PMC9934367, “Functional impact of subunit composition and compensation on Drosophila melanogaster nicotinic receptors–targets of neonicotinoids” (PLOS Genetics, 2023)

System: D. melanogaster nAChRs
Assay: Comparison of agonist activity between nAChRs expressed in X. laevis oocytes (one-way ANOVA, Kruskal-Wallis);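 as to Difference of Imax values: Imax relative to maximal plateau response to ACh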
Assay type: cell-based
Outline: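 Agonist pEC50 values, derived from Hill fits of normalised peak currents, were compared across receptors by one-way ANOVA or Kruskal-Wallis. Currents came from oocytes clamped at −100 mV and perfused with atropine-containing saline (0.5 μM), 3–4 days after cRNA injection of fly nAChR subunits and co-factors.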

[1] = Dα1/Dα2/Dα3/Dβ1 vs. Dα1/Dα2/Dα3/Dβ1/Dβ2
[2] = Dα1/Dα2/Dα3/Dβ1 vs. Dα1/Dα2/Dβ1/Dβ2
[3] = Dα1/Dα2/Dα3/Dβ1 vs. Dα1/Dα3/Dβ1/Dβ2
[4] = Dα1/Dα2/Dα3/Dβ1 vs. Dα1/Dβ1/Dβ2
[5] = Dα1/Dα2/Dα3/Dβ1 vs. Dα2/Dα3/Dβ1/Dβ2
[6] = Dα1/Dα2/Dα3/Dβ1 vs. Dα3/Dβ1/Dβ2
[7] = Dα1/Dα2/Dβ1/Dβ2 vs. Dα1/Dα2/Dα3/Dβ1/Dβ2
[8] = Dα1/Dα2/Dβ1/Dβ2 vs. Dα2/Dα3/Dβ1/Dβ2
[9] = Dα1/Dα2/Dβ1 vs. Dα1/Dα2/Dα3/Dβ1
[10] = Dα1/Dα2/Dβ1 vs. Dα1/Dα2/Dα3/Dβ1/Dβ2
[11] = Dα1/Dα2/Dβ1 vs. Dα1/Dα2/Dβ1/Dβ2
[12] = Dα1/Dα2/Dβ1 vs. Dα1/Dα3/Dβ1/Dβ2
[13] = Dα1/Dα2/Dβ1 vs. Dα2/Dα3/Dβ1/Dβ2
[14] = Dα1/Dα3/Dβ1/Dβ2 vs. Dα1/Dα2/Dα3/Dβ1/Dβ2
[15] = Dα1/Dα3/Dβ1/Dβ2 vs. Dα1/Dα2/Dβ1/Dβ2
[16] = Dα1/Dα3/Dβ1/Dβ2 vs. Dα2/Dα3/Dβ1/Dβ2
[17] = Dα1/Dα3/Dβ1 vs. Dα1/Dα2/Dα3/Dβ1
[18] = Dα1/Dα3/Dβ1 vs. Dα1/Dα2/Dα3/Dβ1/Dβ2
[19] = Dα1/Dα3/Dβ1 vs. Dα1/Dα2/Dβ1/Dβ2
[20] = Dα1/Dα3/Dβ1 vs. Dα1/Dα3/Dβ1/Dβ2
[21] = Dα1/Dα3/Dβ1 vs. Dα2/Dα3/Dβ1/Dβ2
[22] = Dα1/Dβ1/Dβ2 vs. Dα1/Dα2/Dα3/Dβ1/Dβ2
[23] = Dα1/Dβ1/Dβ2 vs. Dα1/Dα2/Dβ1/Dβ2
[24] = Dα1/Dβ1/Dβ2 vs. Dα1/Dα3/Dβ1/Dβ2
[25] = Dα1/Dβ1/Dβ2 vs. Dα2/Dα3/Dβ1/Dβ2
[26] = Dα1/Dβ1 vs. Dα1/Dα2/Dα3/Dβ1/Dβ2
[27] = Dα2/Dα3/Dβ1/Dβ2 vs. Dα1/Dα2/Dα3/Dβ1/Dβ2
[28] = Dα2/Dα3/Dβ1 vs. Dα1/Dα2/Dα3/Dβ1
[29] = Dα2/Dα3/Dβ1 vs. Dα1/Dα2/Dα3/Dβ1/Dβ2
[30] = Dα2/Dα3/Dβ1 vs. Dα1/Dα2/Dβ1/Dβ2
[31] = Dα2/Dα3/Dβ1 vs. Dα1/Dα3/Dβ1/Dβ2
[32] = Dα2/Dα3/Dβ1 vs. Dα2/Dα3/Dβ1/Dβ2
[33] = Dα3/Dβ1/Dβ2 vs. Dα1/Dα2/Dα3/Dβ1/Dβ2
[34] = Dα3/Dβ1/Dβ2 vs. Dα1/Dα2/Dβ1/Dβ2
[35] = Dα3/Dβ1/Dβ2 vs. Dα1/Dα3/Dβ1/Dβ2
[36] = Dα3/Dβ1/Dβ2 vs. Dα2/Dα3/Dβ1/Dβ2
[37] = Dα3/Dβ1 vs. Dα1/Dα2/Dα3/Dβ1/Dβ2

SMILES: N#C/N=C1\SCCN1Cc1ccc(Cl)nc1 [Thiacloprid, thiacloprid]
- Difference of pEC50 values, nAChRs compared (Dα1/Dα2/Dα3/Dβ1/Dβ2 vs. Dα1/Dα2/Dα4/Dβ1/Dβ2): 0.17
- Difference of pEC50 values, nAChRs compared (Dα1/Dα2/Dα3/Dβ1/Dβ2 vs. Dα1/Dα2/Dβ1/Dβ2/Dβ3): -0.53
- Difference of pEC50 values, nAChRs compared (Dα1/Dα2/Dα3/Dβ1/Dβ2 vs. Dα1/Dα3/Dα4/Dβ1/Dβ2): -0.78
- Difference of pEC50 values, nAChRs compared (Dα1/Dα2/Dα3/Dβ1/Dβ2 vs. Dα1/Dα3/Dβ1/Dβ2/Dβ3): -1.45
- Difference of pEC50 values, nAChRs compared (Dα1/Dα2/Dα3/Dβ1/Dβ2 vs. Dα2/Dα3/Dα4/Dβ1/Dβ2): -0.81
- Difference of pEC50 values, nAChRs compared (Dα1/Dα2/Dα3/Dβ1/Dβ2 vs. Dα2/Dα3/Dβ1/Dβ2/Dβ3): -1.13
- Difference of Imax values [1]: -0.012
- Difference of pEC50 values [1]: 0.55
- Difference of Imax values [2]: -0.027
- Difference of pEC50 values [2]: 0.63
- Difference of Imax values [3]: -0.060
- Difference of pEC50 values [3]: -0.27
- Difference of Imax values [4]: 0.004
- Difference of pEC50 values [4]: -0.13
- Difference of Imax values [5]: 0.030
- Difference of pEC50 values [5]: -0.35
- Difference of Imax values [6]: 0.025
- Difference of pEC50 values [6]: -0.59
- Difference of Imax values [7]: 0.015
- Difference of pEC50 values [7]: -0.08
- Difference of Imax values [8]: 0.057
- Difference of pEC50 values [8]: -0.98
- Difference of Imax values [9]: -0.022
- Difference of pEC50 values [9]: -0.81
- Difference of Imax values [10]: -0.034
- Difference of pEC50 values [10]: -0.26
- Difference of Imax values [11]: -0.049
- Difference of pEC50 values [11]: -0.18
- Difference of Imax values [12]: -0.082
- Difference of pEC50 values [12]: -1.08
- Difference of Imax values (Dα1/Dα2/Dβ1 vs. Dα1/Dβ1/Dβ2): -0.018
- Difference of pEC50 values (Dα1/Dα2/Dβ1 vs. Dα1/Dβ1/Dβ2): -0.94
- Difference of Imax values (Dα1/Dα2/Dβ1 vs. Dα2/Dα3/Dβ1): -0.020
- Difference of pEC50 values (Dα1/Dα2/Dβ1 vs. Dα2/Dα3/Dβ1): 0.00
- Difference of Imax values [13]: 0.008
- Difference of pEC50 values [13]: -1.16
- Difference of Imax values (Dα1/Dα2/Dβ1 vs. Dα3/Dβ1/Dβ2): 0.003
- Difference of pEC50 values (Dα1/Dα2/Dβ1 vs. Dα3/Dβ1/Dβ2): -1.40
- Difference of Imax values [14]: 0.048
- Difference of pEC50 values [14]: 0.82
- Difference of Imax values [15]: 0.033
- Difference of pEC50 values [15]: 0.90
- Difference of Imax values [16]: 0.090
- Difference of pEC50 values [16]: -0.08
- Difference of Imax values [17]: 0.000
- Difference of pEC50 values [17]: 0.34
- Difference of Imax values [18]: -0.012
- Difference of pEC50 values [18]: 0.89
- Difference of Imax values (Dα1/Dα3/Dβ1 vs. Dα1/Dα2/Dβ1): 0.022
- Difference of pEC50 values (Dα1/Dα3/Dβ1 vs. Dα1/Dα2/Dβ1): 1.15
- Difference of Imax values [19]: -0.027
- Difference of pEC50 values [19]: 0.97
- Difference of Imax values [20]: -0.060
- Difference of pEC50 values [20]: 0.07
- Difference of Imax values (Dα1/Dα3/Dβ1 vs. Dα1/Dβ1/Dβ2): 0.004
- Difference of pEC50 values (Dα1/Dα3/Dβ1 vs. Dα1/Dβ1/Dβ2): 0.21
- Difference of Imax values (Dα1/Dα3/Dβ1 vs. Dα2/Dα3/Dβ1): 0.002
- Difference of pEC50 values (Dα1/Dα3/Dβ1 vs. Dα2/Dα3/Dβ1): 1.15
- Difference of Imax values [21]: 0.030
- Difference of pEC50 values [21]: -0.01
- Difference of Imax values (Dα1/Dα3/Dβ1 vs. Dα3/Dβ1/Dβ2): 0.025
- Difference of pEC50 values (Dα1/Dα3/Dβ1 vs. Dα3/Dβ1/Dβ2): -0.25
- Difference of Imax values [22]: -0.016
- Difference of pEC50 values [22]: 0.68
- Difference of Imax values [23]: -0.031
- Difference of pEC50 values [23]: 0.76
- Difference of Imax values [24]: -0.064
- Difference of pEC50 values [24]: -0.14
- Difference of Imax values [25]: 0.026
- Difference of pEC50 values [25]: -0.22
- Difference of Imax values (Dα1/Dβ1/Dβ2 vs. Dα3/Dβ1/Dβ2): 0.021
- Difference of pEC50 values (Dα1/Dβ1/Dβ2 vs. Dα3/Dβ1/Dβ2): -0.46
- Difference of Imax values (Dα1/Dβ1 vs. Dα1/Dα2/Dα3/Dβ1): 0.044
- Difference of pEC50 values (Dα1/Dβ1 vs. Dα1/Dα2/Dα3/Dβ1): 0.06
- Difference of Imax values [26]: 0.032
- Difference of pEC50 values [26]: 0.61
- Difference of Imax values (Dα1/Dβ1 vs. Dα1/Dα2/Dβ1): 0.066
- Difference of pEC50 values (Dα1/Dβ1 vs. Dα1/Dα2/Dβ1): 0.87
- Difference of Imax values (Dα1/Dβ1 vs. Dα1/Dα2/Dβ1/Dβ2): 0.017
- Difference of pEC50 values (Dα1/Dβ1 vs. Dα1/Dα2/Dβ1/Dβ2): 0.69
- Difference of Imax values (Dα1/Dβ1 vs. Dα1/Dα3/Dβ1): 0.044
- Difference of pEC50 values (Dα1/Dβ1 vs. Dα1/Dα3/Dβ1): -0.28
- Difference of Imax values (Dα1/Dβ1 vs. Dα1/Dα3/Dβ1/Dβ2): -0.016
- Difference of pEC50 values (Dα1/Dβ1 vs. Dα1/Dα3/Dβ1/Dβ2): -0.21
- Difference of Imax values (Dα1/Dβ1 vs. Dα1/Dβ1/Dβ2): 0.048
- Difference of pEC50 values (Dα1/Dβ1 vs. Dα1/Dβ1/Dβ2): -0.07
- Difference of Imax values (Dα1/Dβ1 vs. Dα2/Dα3/Dβ1): 0.046
- Difference of pEC50 values (Dα1/Dβ1 vs. Dα2/Dα3/Dβ1): 0.87
- Difference of Imax values (Dα1/Dβ1 vs. Dα2/Dα3/Dβ1/Dβ2): 0.074
- Difference of pEC50 values (Dα1/Dβ1 vs. Dα2/Dα3/Dβ1/Dβ2): -0.29
- Difference of Imax values (Dα1/Dβ1 vs. Dα3/Dβ1): 0.075
- Difference of pEC50 values (Dα1/Dβ1 vs. Dα3/Dβ1): -0.01
- Difference of Imax values (Dα1/Dβ1 vs. Dα3/Dβ1/Dβ2): 0.069
- Difference of pEC50 values (Dα1/Dβ1 vs. Dα3/Dβ1/Dβ2): -0.53
- Difference of Imax values [27]: -0.042
- Difference of pEC50 values [27]: 0.90
- Difference of Imax values [28]: -0.002
- Difference of pEC50 values [28]: -0.81
- Difference of Imax values [29]: -0.014
- Difference of pEC50 values [29]: -0.26
- Difference of Imax values [30]: -0.029
- Difference of pEC50 values [30]: -0.18
- Difference of Imax values [31]: -0.062
- Difference of pEC50 values [31]: -1.08
- Difference of Imax values (Dα2/Dα3/Dβ1 vs. Dα1/Dβ1/Dβ2): 0.002
- Difference of pEC50 values (Dα2/Dα3/Dβ1 vs. Dα1/Dβ1/Dβ2): -0.94
- Difference of Imax values [32]: 0.028
- Difference of pEC50 values [32]: -1.16
- Difference of Imax values (Dα2/Dα3/Dβ1 vs. Dα3/Dβ1/Dβ2): 0.023
- Difference of pEC50 values (Dα2/Dα3/Dβ1 vs. Dα3/Dβ1/Dβ2): -1.40
- Difference of Imax values [33]: -0.037
- Difference of pEC50 values [33]: 1.14
- Difference of Imax values [34]: -0.052
- Difference of pEC50 values [34]: 1.22
- Difference of Imax values [35]: -0.085
- Difference of pEC50 values [35]: 0.32
- Difference of Imax values [36]: 0.005
- Difference of pEC50 values [36]: 0.24
- Difference of Imax values (Dα3/Dβ1 vs. Dα1/Dα2/Dα3/Dβ1): -0.031
- Difference of pEC50 values (Dα3/Dβ1 vs. Dα1/Dα2/Dα3/Dβ1): 0.07
- Difference of Imax values [37]: -0.043
- Difference of pEC50 values [37]: 0.62
- Difference of Imax values (Dα3/Dβ1 vs. Dα1/Dα2/Dβ1): -0.009
- Difference of pEC50 values (Dα3/Dβ1 vs. Dα1/Dα2/Dβ1): 0.88
- Difference of Imax values (Dα3/Dβ1 vs. Dα1/Dα2/Dβ1/Dβ2): -0.058
- Difference of pEC50 values (Dα3/Dβ1 vs. Dα1/Dα2/Dβ1/Dβ2): 0.70
- Difference of Imax values (Dα3/Dβ1 vs. Dα1/Dα3/Dβ1): -0.031
- Difference of pEC50 values (Dα3/Dβ1 vs. Dα1/Dα3/Dβ1): -0.27
- Difference of Imax values (Dα3/Dβ1 vs. Dα1/Dα3/Dβ1/Dβ2): -0.091
- Difference of pEC50 values (Dα3/Dβ1 vs. Dα1/Dα3/Dβ1/Dβ2): -0.20
- Difference of Imax values (Dα3/Dβ1 vs. Dα1/Dβ1/Dβ2): -0.027
- Difference of pEC50 values (Dα3/Dβ1 vs. Dα1/Dβ1/Dβ2): -0.06
- Difference of Imax values (Dα3/Dβ1 vs. Dα2/Dα3/Dβ1): -0.029
- Difference of pEC50 values (Dα3/Dβ1 vs. Dα2/Dα3/Dβ1): 0.88
- Difference of Imax values (Dα3/Dβ1 vs. Dα2/Dα3/Dβ1/Dβ2): -0.001
- Difference of pEC50 values (Dα3/Dβ1 vs. Dα2/Dα3/Dβ1/Dβ2): -0.28
- Difference of Imax values (Dα3/Dβ1 vs. Dα3/Dβ1/Dβ2): -0.006
- Difference of pEC50 values (Dα3/Dβ1 vs. Dα3/Dβ1/Dβ2): -0.52
